Measured values from PMC9598926, “Design and Synthesis of (Z)-5-(Substituted benzylidene)-3-cyclohexyl-2-thioxothiazolidin-4-one Analogues as Anti-Tyrosinase and Antioxidant Compounds: In Vitro and In Silico Insights” (Antioxidants, 2022).

Experiments:
[1] = test system: mushroom tyrosinase; assay: Kinetic studies on mushroom tyrosinase inhibition (Lineweaver–Burk and Dixon plots, L-tyrosine); assay type: biochemical; details: for mode of mushroom tyrosinase inhibition: L-tyrosine as substrate; for Ki: mushroom tyrosinase
Method: 2.6. Kinetic Studies on Mushroom Tyrosinase Inhibition by Analogues 2 and 3
Lineweaver–Burk plots of analogues 2 and 3 were used to determine modes of mushroom tyrosinase inhibition in the presence of L-tyrosine as substrate. Briefly, 20 µL of an aqueous mushroom tyrosinase solution (200 units/mL), and 170 µL of an aqueous solution consisting of L-tyrosine at various concentrations (final concentrations: 0, 1, 2, 4, 8, or 16 mM), and sodium phosphate buffer (pH 6.5, final concentration: 14.7 mM) were added to the wells of a 96-well microplate. Subsequently, analogues 2 and 3 at four different concentrations (10 µL; final concentrations 0, 5, 10, or 20 µM in DMSO solution for 2, and concentrations of 0, 1, 2, or 4 µM in DMSO solution for 3) were added to wells. Initial rates of dopachrome formation were determined by measuring changes in absorbance at 475 nm per min (ΔOD475/min) using a microplate reader (VersaMax®, Molecular Devices, Sunnyvale, CA, USA). Maximum velocities (Vmax) were calculated from Lineweaver–Burk plots obtained using six different L-tyrosine concentrations. The modes of mushroom tyrosinase inhibition by the analogs were determined using the locations of plot convergence points.
Lineweaver–Burk double reciprocal plots were used to analyze enzyme’s inhibitory mechanisms. Kinetic studies were conducted using four different concentrations of analogs 2 (0, 5, 10, or 20 μM) and 3 (0, 1, 2, or 4 μM) in the presence of L-tyrosine at five different concentrations (1, 2, 4, 8, or 16 mM).

[2] = target: mushroom tyrosinase; assay: Mushroom tyrosinase inhibition in the presence of L-dopa; assay type: biochemical; details: L-dopa as substrate
[3] = test system: B16F10 murine melanoma cells; assay: B16F10 cell viability (EZ-Cytox assay); assay type: cell-based
Method: 2.8. Viabilities of B16F10 Murine Melanoma Cells Treated with Analogues 2 or 3
The cytotoxic effects of analogs 2 and 3 were examined using B16F10 murine melanoma cells, as previously described. Cell viabilities were determined using the EZ-Cytox cell viability assay kit (Daeil Lab Service Co. Ltd., Seoul, Korea). Briefly, B16F10 cells (density 1 × 10^4 cells/well) were added to the wells of a 96-well microplate and cultured in a humidified 5% CO2 atmosphere at 37 °C for 24 h. Cells were then exposed to analogs 2 or 3 at 0, 1, 2, 5, 10, or 20 µM and incubated in a humidified 5% CO2 atmosphere for 24, 48, or 72 h at 37 °C. At these time points, cells were exposed to 10 µL of EZ-Cytox solution and incubated for 2 h at 37 °C. Optical densities of wells were then measured at 450 nm using a microplate reader (VersaMax®, Molecular Devices, Sunnyvale, CA, USA) to assess cell viability. Experiments were conducted independently 3 times.
Since analogs 2 and 3 had potent inhibitory effects on mushroom tyrosinase, they were subjected to B16F10 murine melanoma cytotoxicity assays. Initially, the cytotoxicities of 2 and 3 were investigated at concentrations of 0, 1, 2, 5, 10, and 20 µM using the EZ-Cytox cell viability assay (EZ-3000; DoGenBio, Seoul, Korea). Cell viability was measured after treatment for 24, 48, or 72 h (Figure 6).

[4] = DPPH radical scavenging activity assay; details: test sample 500 µM, DPPH 0.18 mM, 30 min in the dark
Method: 2.11. DPPH Radical Scavenging Activity Assay
The DPPH radical scavenging activities of analogs 1–8 were investigated as previously described with minor modification. L-Ascorbic acid was used as a positive control. In brief, 20 µL of analogs (5 mM) in DMSO or 5 mM L-ascorbic acid in distilled water were mixed with 180 µL of 0.2 mM DPPH in methanol in a 96-well microplate. After the microplate had been stored in the dark for 30 min, optical densities (ODs) were measured at 517 nm using a microplate reader (VersaMax®, Molecular Devices, Sunnyvale, CA, USA). DPPH radical scavenging activities were determined using the following formula:DPPH radical scavenging activity (%) = 100 × (Ac − As)/Ac(1) where Ac indicates the optical density of the non-treated control and As indicates the optical density of test sample. Experiments were conducted independently 3 times.
There is a possibility that compounds with antioxidant properties inhibit the oxidations of tyrosinase substrates, such as L-tyrosine and L-dopa, without interacting with the tyrosinase. Melanin production requires many oxidative processes, including the conversion of L-tyrosine to dopaquinone via L-dopa. Therefore, compounds with antioxidant activity have the potential to inhibit melanogenesis. DPPH (2,2-diphenyl-1-picrylhydrazyl) contains a free radical, and DPPH assays are commonly used to assess antioxidant activity. In this experiment, L-ascorbic acid (an antioxidant) was used as a positive control. The assay was conducted at a test sample and L-ascorbic acid concentration of 500 µM and a DPPH concentration of 0.18 mM. After standing test sample/DPPH mixtures for 30 min in the dark, optical densities were measured to evaluate radical scavenging activities.

mode of mushroom tyrosinase inhibition ([1]; Lineweaver–Burk plots) | Vmax ([1]; Lineweaver–Burk plots, L-tyrosine, independent of analog 2 concentration (0, 5, 10, 20 µM)) [mM/min] | Ki ([1]; L-tyrosine) [µM] | IC50 [2] [µM] | Km ([1]; Lineweaver–Burk plots, L-tyrosine, independent of analog 3 concentration (0, 1, 2, 4 µM)) [µM] | SMILES | cytotoxicity in B16F10 cells, 24 h ([3]; 1, 2, 5, 10, 20 µM, 24 h) | cytotoxicity in B16F10 cells, 48 h and 72 h ([3]; 1, 2, 5, 10, 20 µM, 48 h and 72 h) | DPPH radical scavenging activity [4] [%] | cytotoxicity in B16F10 cells, any concentration or time ([3]; 1, 2, 5, 10, 20 µM, 24, 48, 72 h)
competitively | 0.00343 | 2.22 | 39.7 ± 3.43 |  | O=C1/C(=C/c2ccc(O)c(O)c2)SC(=S)N1C1CCCCC1 [Analog 2, (Z)-3-Cyclohexyl-5-(3,4-dihydroxybenzylidene)-2-thioxothiazolidin-4-one] | cytotoxic at 20 µM | cytotoxic at all concentrations | 92 | 
non-competitive |  | 1.27 | 10.6 ± 2.92 | 2810 | O=C1/C(=C/c2ccc(O)cc2O)SC(=S)N1C1CCCCC1 [Analog 3, (Z)-3-Cyclohexyl-5-(2,4-dihydroxybenzylidene)-2-thioxothiazolidin-4-one] |  |  | 73 | not cytotoxic
